Assay results reported in patent publication US20110236467A1, “METHOD FOR ERECTILE FUNCTION PO[…] PHARMACEUTICAL CO[…] TX2-6 OF THE SPIDER PHONEUTRIA NIGRIVENTER” (priority 2008, published 2011).
Entries after “also recorded” stand apart in the source; their conditions may differ.

Tested on: nitric oxide synthase (NOS)
Assay: Blockage of nitric oxide synthase by L-NAME and Tx2-6 action on erectile function (ICP/MAP) in rats
Format: in vivo, rat
Description: The participation of nitric oxide, resulting from the toxin effect on erection, was tested by using a nonselective inhibitor of the nitric oxide synthase enzyme, L-NAME (L-N^G-nitro-arginine methyl ester), intracavernosally injected (200 mg/Kg) in normotensive rats treated with Tx2-6 (subcutaneously injected; 48 μg/Kg).
Nitric oxide (NO) is generated from the amino acid L-arginine by means of the NOS enzyme action. This synthesis occurs in different parts of the organism, including the corpus cavernosum. In this experiment, an inhibitor nonspecific for NOS (L-NAME, 200 mg/Kg) was injected intracavemosally.

## COC(=O)[C@@H](N)CCCNC(=N)N[N+](=O)[O-] [L-NAME, L-N^G-nitro-arginine methyl ester]
L-NAME 200 mg/Kg intracavernosal, submaximum stimulation
  effect of L-NAME on rat erectile function (ICP/AMP ratio): blocked rat erectile function; also recorded: significant blockage
L-NAME with Tx2-6
  effect of L-NAME on the potentiator effect of erection caused by the toxin (ICP/MAP relation): completely blocked
